Legend:
Assay type in all cases: in vivo
[1] = tested on: barnyardgrass (Echinochloa crus-galli); assay: Test A pre-/postemergence plant response
Summary of the method: (§1)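 Both pre- and postemergence treatment given concurrently; postemergence seedlings measured 2–10 cm at the one- to two-leaf stage. Visual injury, 0–100 scale versus untreated, at ~10 days.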

corn (Zea mays) = assay: Test A pre-/postemergence plant response
Summary of the method: as §1

[2] = tested on: morningglory (Ipomoea coccinea); assay: Test A pre-/postemergence plant response
Summary of the method: as §1

[3] = tested on: pigweed (Amaranthus retroflexus); assay: Test A pre-/postemergence plant response
Summary of the method: as §1

[4] = tested on: wheat (Triticum aestivum); assay: Test A pre-/postemergence plant response
Summary of the method: as §1

[5] = tested on: catchweed bedstraw (Galium aparine); assay: Test B pre-/postemergence plant response; conditions: Preemergence, scale 0 to 100
Summary of the method: (§2)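 Preemergence and postemergence (plants 2-18 cm, 1- to 4-leaf stage) applications used test chemicals in a non-phytotoxic solvent with surfactant. Plants were held in a greenhouse 13 to 15 days, then rated visually against controls on a 0-100 scale (0 no effect, 100 complete control).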

[6] = tested on: johnsongrass (Sorghum halepense); assay: Test B pre-/postemergence plant response
Summary of the method: as §2

[7] = tested on: pigweed (Amaranthus retroflexus); assay: Test B pre-/postemergence plant response
Summary of the method: as §2

[8] = tested on: canarygrass (Phalaris minor); assay: Test B postemergence plant response; conditions: for Plant response rating, Canarygrass: Postemergence
Summary of the method: (§3)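 Compounds applied after emergence to 2–18 cm plants; response read visually 13–15 days later on 0 (none) to 100 (complete control); a dash marks no result.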

[9] = tested on: chickweed (Stellaria media); assay: Test B postemergence plant response; conditions: for Plant response rating, Chickweed: Postemergence
Summary of the method: as §3

[10] = tested on: windgrass (Apera spica-venti); assay: Test B postemergence plant response; conditions: for Plant response rating, Windgrass: Postemergence
Summary of the method: as §3

[11] = tested on: winter barley (Hordeum vulgare); assay: Test B postemergence plant response; conditions: for Plant response rating, Barley: Postemergence, scale 0 to 100, 0 no effect, 100 complete control
Summary of the method: as §3

[12] = Postemergence, 31 g ai/ha, 0 to 100 scale, 0 no effect, 100 complete control
[13] = Postemergence, 125 g ai/ha, 0 to 100 scale, 0 no effect, 100 complete control
[14] = Preemergence, 31 g ai/ha, 0 to 100 scale, 0 is no effect, 100 is complete control
[15] = Preemergence, 125 g ai/ha, 0 to 100 scale (0 no effect, 100 complete control)
[16] = 8 g ai/ha, postemergence, 0-100 scale
[17] = Postemergence, 16 g ai/ha, scale 0 to 100
[18] = Postemergence, 31 g ai/ha, scale 0 to 100
[19] = Postemergence, 62 g ai/ha, scale 0 to 100, 0 no effect, 100 complete control
[20] = Preemergence, 62 g ai/ha, scale 0 to 100
[21] = Preemergence, 8 g ai/ha, scale 0 to 100
[22] = Preemergence, 16 g ai/ha, scale 0 to 100
[23] = 62 g ai/ha, scale 0 to 100, 0 no effect, 100 complete control

With `Cc1cc(-c2ccc(Cl)cc2)nn1-c1c(OC(=O)Oc2ccccc2)cnn(C)c1=O` [Compound 54] the “Plant response rating, Barnyardgrass” value [1, 12] was 80, the “Plant response rating, Barnyardgrass” value [1, 13] was 100 and the “Plant response rating, Barnyardgrass” value [1, 14] was 70. The “Plant response rating, Barnyardgrass” value [1, 15] was 100, the “Plant response rating, Corn” value (corn (Zea mays); [12]) was 40 and the “Plant response rating, Corn” value (corn (Zea mays); [13]) was 90. For the same compound, the “Plant response rating, Corn” value (corn (Zea mays); [14]) was 0, the “Plant response rating, Corn” value (corn (Zea mays); [15]) was 60 and the “Plant response rating, Morningglory” value [2, 12] was 0. The “Plant response rating, Morningglory” value [2, 13] was 0, the “Plant response rating, Morningglory” value [2, 14] was 0 and the “Plant response rating, Morningglory” value [2, 15] was 20. The “Plant response rating, Pigweed” value [3, 12] was 0, the “Plant response rating, Pigweed” value [3, 13] was 0 and the “Plant response rating, Pigweed” value [3, 14] was 0. The “Plant response rating, Pigweed” value [3, 15] was 0, the “Plant response rating, Wheat” value [4, 12] was 30 and the “Plant response rating, Wheat” value [4, 13] was 60. The “Plant response rating, Wheat” value [4, 14] was 0, the “Plant response rating, Wheat” value [4, 15] was 60 and the “Plant response rating, Galium” value ([5]; 62 g ai/ha) was 0. The “Galium plant response rating” value ([5]; 8 g ai/ha) was 0, the “Galium plant response rating” value ([5]; 16 g ai/ha) was 0 and the “Johnsongrass plant response rating” value [6, 16] was 0. For the same compound, the “Plant response rating, Johnsongrass” value [6, 17] was 25, the “Plant response rating, Johnsongrass” value [6, 18] was 80 and the “Plant response rating, Johnsongrass” value [6, 19] was 100. For the same compound, the “Plant response rating, Johnsongrass” value ([6]; Preemergence, 31 g ai/ha, 0 to 100 scale, 0 no effect, 100 complete control) was 75, the “Plant response rating, Johnsongrass” value [6, 20] was 90 and the “Johnsongrass plant response rating” value [6, 21] was 0. For the same compound, the “Johnsongrass plant response rating” value [6, 22] was 40, the “Pigweed plant response rating” value [7, 16] was 0 and the “Plant response rating, Pigweed” value [7, 17] was 0. The “Plant response rating, Pigweed” value [7, 18] was 0, the “Plant response rating, Pigweed” value [7, 19] was 0 and the “Plant response rating, Pigweed” value ([7]; Preemergence, 31 g ai/ha, scale 0 to 100 (0 no effect, 100 complete control)) was 0. For the same compound, the “Plant response rating, Pigweed” value [7, 20] was 0, the “Pigweed plant response rating” value [7, 21] was 0 and the “Pigweed plant response rating” value [7, 22] was 0. The “Canarygrass plant response rating” value [8, 16] was 0, the “Plant response rating, Canarygrass” value ([8]; 16 g ai/ha, scale 0 to 100) was 0 and the “Plant response rating, Canarygrass” value ([8]; 31 g ai/ha, scale 0 to 100) was 0. For the same compound, the “Plant response rating, Canarygrass” value [8, 23] was 0, the “Chickweed plant response rating” value [9, 16] was 0 and the “Plant response rating, Chickweed” value ([9]; 16 g ai/ha, scale 0 to 100) was 0. The “Plant response rating, Chickweed” value ([9]; 31 g ai/ha, scale 0 to 100) was 0, the “Plant response rating, Chickweed” value [9, 23] was 0 and the “Windgrass plant response rating” value [10, 16] was 0. The “Plant response rating, Windgrass” value ([10]; 16 g ai/ha, scale 0 to 100) was 20, the “Plant response rating, Windgrass” value ([10]; 31 g ai/ha, scale 0 to 100) was 20 and the “Plant response rating, Windgrass” value [10, 23] was 80. For the same compound, the “Barley plant response rating” value [11, 16] was 0, the “Plant response rating, Barley” value ([11]; 16 g ai/ha) was 0 and the “Plant response rating, Barley” value ([11]; 31 g ai/ha) was 0. The “Plant response rating, Barley” value ([11]; 62 g ai/ha) was 0.

From patent US20100267561A1, “HERBICIDAL PYRIDAZINONE DERIVATIVES” (priority 2007, published 2010)
